PubChem BioAssay AID256 (DTP/NCI, 2004)
“And” between values parts separate entries of the source, which are not always exact repeats. Identical values can stand only once. Inconclusive results and toxic doses are left out. Rule for the calls: active = survival T/C of 150% or more; inactive = T/C below 125% in these data.

System: CD2F1 mice, L1210 leukemia ip, survival T/C
Experiment: NCI In Vivo Anticancer Drug Screen. Data for tumor model L1210 Leukemia (intraperitoneal) in CD2F1 (CDF1) mice
Details: endpoint: mean survival time, higher = longer survival
Summary of the method: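 In this screen, transplantable tumors were grown in mice given either the compound or its vehicle. Results were expressed as the treated measurement relative to the control measurement.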

[1] = dose: 100.0 mg/kg/injection, schedule: Q01DX009 (ip), vehicle: saline with Tween-80
[2] = dose: 100.0 mg/kg/injection, schedule: Q04DX003 (ip), vehicle: saline with Tween-80
[3] = dose: 200.0 mg/kg/injection, schedule: Q01DX009 (ip), vehicle: saline with Tween-80
[4] = dose: 200.0 mg/kg/injection, schedule: Q04DX003 (ip), vehicle: saline with Tween-80
[5] = dose: 400.0 mg/kg/injection, schedule: Q01DX009 (ip), vehicle: saline with Tween-80
[6] = dose: 400.0 mg/kg/injection, schedule: Q04DX003 (ip), vehicle: saline with Tween-80
[7] = dose: 12.5 mg/kg/injection, schedule: Q01DX009 (ip), vehicle: saline with Tween-80
[8] = dose: 25.0 mg/kg/injection, schedule: Q01DX009 (ip), vehicle: saline with Tween-80
[9] = dose: 50.0 mg/kg/injection, schedule: Q01DX009 (ip), vehicle: saline with Tween-80
[10] = dose: 100.0 mg/kg/injection, schedule: Q01DX001 (ip), vehicle: saline
[11] = dose: 200.0 mg/kg/injection, schedule: Q01DX001 (ip), vehicle: saline
[12] = dose: 400.0 mg/kg/injection, schedule: Q01DX001 (ip), vehicle: saline
[13] = dose: 100.0 mg/kg/injection, schedule: Q04DX002 (ip), vehicle: saline with Tween-80
[14] = dose: 400.0 mg/kg/injection, schedule: Q04DX002 (ip), vehicle: saline with Tween-80

Measured: T/C

COc1ccc(C=NC2CC(C)CCC2C)c(OC)c1 (stereo unspecified)
inactive: [1] 86 % of control | [2] 91 % of control | [3] 89 % of control | [4] 95 % of control | [5] 93 % of control | [6] 95 % of control

Nc1cnc(/C=C/c2ccccc2)nc1
inactive: dose: 75.0 mg/kg/injection, schedule: Q01DX001 (ip), vehicle: other 104 % of control | dose: 150.0 mg/kg/injection, schedule: Q01DX001 (ip), vehicle: other 102 % of control

Nc1ccccc1-c1ccc([N+](=O)[O-])cc1
inactive: [2] 94 % of control | [4] 92 % of control | [6] 101 % of control

Nc1nc2ccc(CNc3ccc(C(=O)NC(CC(=O)O)C(=O)O)cc3)cc2c(=O)[nH]1 (stereo unspecified)
inactive: dose: 66.0 mg/kg/injection, schedule: Q04DX003 (ip), vehicle: saline with Tween-80 105 % of control | [2] 109 % of control | dose: 150.0 mg/kg/injection, schedule: Q04DX003 (ip), vehicle: saline with Tween-80 105 % of control

O=c1c2ccsc2ncn1C1OC(CO)C(O)C1O (stereo unspecified)
inactive: [7] 111 % of control | [8] 111 % of control | [9] 91 % of control

O=C(Cc1cccc([N+](=O)[O-])c1)Nc1cccc(S(=O)(=O)F)c1
inactive: dose: 100.0 mg/kg/injection, schedule: Q01DX001 (ip), vehicle: saline with Tween-80 96 % of control | dose: 200.0 mg/kg/injection, schedule: Q01DX001 (ip), vehicle: saline with Tween-80 95 % of control | dose: 400.0 mg/kg/injection, schedule: Q01DX001 (ip), vehicle: saline with Tween-80 96 % of control

O=C(CBr)CC(O)(C(F)(F)F)C(F)(F)F
inactive: dose: 12.5 mg/kg/injection, schedule: Q04DX003 (ip), vehicle: saline 98 % of control

N#CC1C(=O)c2ccccc2C1=O
inactive: dose: 25.0 mg/kg/injection, schedule: Q04DX003 (ip), vehicle: saline with Tween-80 91 % of control | dose: 50.0 mg/kg/injection, schedule: Q04DX003 (ip), vehicle: saline with Tween-80 93 % of control | [2] 93 % of control

CCOC(=O)CCCN(C)C(C)(C)C#N
inactive: [1] 103 % of control | [5] 108 % of control

Cc1ccc(-c2noc(C)n2)cc1
inactive: [10] 103 % of control | [11] 105 % of control | [12] 103 % of control

O=C(O)CSC1=NCCN1 (tested in a mixture with another compound)
inactive: [10] 90 % of control | [11] 93 % of control | [12] 93 % of control

Oc1ccccc1C=NC1CCCCC1N=Cc1ccccc1O.[Cu] (stereo unspecified)
inactive: [13] 88 % of control | dose: 200.0 mg/kg/injection, schedule: Q04DX002 (ip), vehicle: saline with Tween-80 88 % of control | [14] 91 % of control

CC1C2CCC(C2)C1OC(=O)c1ccccc1C(=O)O (stereo unspecified) (tested in a mixture with another compound)
inactive: [9] 107 % of control | [1] 102 % of control and 93 % of control | [2] 95 % of control | [3] 95 % of control | [4] 95 % of control | [5] 94 % of control

CN(C)c1ccc(/C=N/Nc2ncnc(Cl)c2N)cc1
inactive: dose: 100.0 mg/kg/injection, schedule: Q01DX001 (ip), vehicle: carboxymethylcellulose (CMC) 98 % of control | dose: 200.0 mg/kg/injection, schedule: Q01DX001 (ip), vehicle: carboxymethylcellulose (CMC) 91 % of control | dose: 400.0 mg/kg/injection, schedule: Q01DX001 (ip), vehicle: carboxymethylcellulose (CMC) 95 % of control

Brc1cn[nH]c1Br
inactive: [2] 98 % of control | [4] 104 % of control | [6] 88 % of control

CCOc1ccc(OCC)c(NC(=O)Nc2ccccc2C)c1
inactive: dose: 25.0 mg/kg/injection, schedule: Q04DX002 (ip), vehicle: saline with Tween-80 88 % of control | dose: 50.0 mg/kg/injection, schedule: Q04DX002 (ip), vehicle: saline with Tween-80 88 % of control | [13] 90 % of control | [14] 90 % of control

C1CC[N-]CC1.C1CC[N-]CC1.[Cl][Rh]([Cl])[Cl]
inactive: [7] 90 % of control | [8] 98 % of control | [9] 100 % of control | [1] 94 % of control | [3] 96 % of control
